Laboratory results: article PMC8178125, “The acyl chains of phosphoinositide PIP3 alter the structure and function of nuclear receptor steroidogenic factor-1” (Journal of Lipid Research, 2021)
Each block holds one molecule with its values, some of them ahead of it. 5Fam = 5-carboxyfluorescein label on the N-terminus

Key:
human apo-SF-1 LBD [1] = molecular target: T1, human apo-SF-1 LBD (Homo sapiens, UniProt Q13285, C247S/C412S); experiment: Native gel (electromobility) shift assay of equilibrium phosphoinositide binding to apo-SF-1 LBD; settings: for Kd: apo-SF-1 LBD 1 μM, 37°C 1 h, 1-site binding model, SEM, read-out: apparent Kd of phosphoinositide binding to SF-1 LBD
T1 construct: human SF-1 LBD comprising amino acids 218–461 of human SF-1; 6X-HIS (N, cleaved yes); TEV site (N, cleaved yes); made in house; host or cells: E. coli BL21 (DE3)
T1 sequence (Q13285 218-461 C247S/C412S): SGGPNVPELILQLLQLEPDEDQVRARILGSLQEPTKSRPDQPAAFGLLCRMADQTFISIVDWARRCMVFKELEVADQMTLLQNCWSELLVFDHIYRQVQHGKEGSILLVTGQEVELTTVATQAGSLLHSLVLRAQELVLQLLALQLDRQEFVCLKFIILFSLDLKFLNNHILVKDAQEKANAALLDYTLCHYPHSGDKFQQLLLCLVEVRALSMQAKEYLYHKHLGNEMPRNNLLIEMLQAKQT
Protocol: Apparent Kd interaction data of phosphoinositides was determined on human apo-SF-1 LBD by a previously described native gel shift assay ([21]) to monitor equilibrium binding to each phosphoinositide. Briefly, apo-SF-1 ligand binding domain was generated using an on-column washout procedure to remove bound phospholipid, wherein pure SF-1 bound to dipalmitoyl PIP3 was loaded onto a Mono Q column and washed with 1.0 L of 20 mM Hepes (8.0), 1 mM EDTA with 2 mM CHAPS at 2 ml/min to remove all bound phospholipid from SF-1 by on-column dilution. The buffer was then changed into 20 mM Hepes (8.0), 1 mM EDTA to remove detergents, and apo-SF-1 eluted using a ammonium acetate gradient, pooled, protein concentration quantitated, and then used in the phosphoinositide binding assay. For the phosphoinositide binding assay, each phosphoinositide was resuspended in water, sonicated, diluted, and stored under nitrogen at 4°C. Phosphoinositides were always re-sonicated immediately before use in binding assays. Two microliters of serially diluted phosphoinositide were added to binding reactions of 25 μl total volume, containing 1 μM final concentration of apo-SF-1 LBD in 20 mM Hepes (8.0), 1 mM EDTA, and 10 mM ammonium acetate in 200 μl polypropylene PCR strip tubes. Binding reactions were incubated at 37°C for 1 h in a PCR thermocycler with a heated reaction cover, the reaction mixed with 3 μl native loading buffer (40% glycerol, 0.005% Ponceau S) and run on a 4% to 16% polyacrylamide Bis-Tris NativePage™ gel (Invitrogen). After fixation and silver staining (BioRad), gels were scanned, the phosphoinositide-shifted band quantitated using NIH image, and apparent Kd determined by nonlinear curve fit to a single-site binding model in GraphPad Prism. Data represent at least three independent replicates.

human SF-1 LBD (2CS) = molecular target: T2, human SF-1 LBD (2CS) (Homo sapiens, UniProt Q13285, C247S/C412S); experiment: Fluorescence polarization coactivator binding assay: 5Fam-labeled PGC1α peptide binding to lipid-complexed SF-1 LBD; settings: SF-1 bound to dioleoyl vs dipalmitoyl PIP3
T2 construct: human SF-1 LBD (218–461) 2CS “Cys-lite” mutant (C247S and C412S); 6X-HIS (N, cleaved yes); TEV site (N, cleaved yes); made in house; host or cells: E. coli BL21 (DE3); peptide purchased from New England Peptide
T2 sequence (Q13285 218-461 C247S/C412S): as above
Text: The same human SF-1 LBD (2CS) construct used for crystallization was complexed with dioleoyl PIP3 and subjected to anion exchange chromatography to separate PIP3-bound species from bacterial phospholipid-bound species. PIP3-bound SF-1 elutes during anion exchange chromatography at higher ionic strength than bacterial phospholipid-bound SF-1 because of the negatively charged phosphates on the PIP3 headgroup. The PIP3-bound and bacterial phospholipid–bound fractions were pooled and concentrated as above, then serially diluted into assay buffer (20 mM Hepes [7.5], 150 mM NaCl) in black-walled 384-well nonprotein binding plates, with 50 μM SF-1 LBD as the highest concentration and a constant 25 μL volume in each well. Reproducibility in the FP assay critically relies on using nonprotein binding plates. To each well, an equal volume of N-terminal 5Fam-labeled PGC1α co-activator peptide (5Fam-EEPSLLKKLLLAPA-OH) was added to a final concentration of 100 nM fluorescently labeled peptide (purchased from New England Peptide). After a 1-h incubation nutating at room temperature in the dark, fluorescence polarization was measured on the Biotek Neo Plate reader at the Vanderbilt High-throughput Screening Center. Data were fit to a standard one-site binding model in GraphPad Prism, and all data represent at least three independent replicates.

SF-1 LBD = molecular target: T3, SF-1 LBD (Homo sapiens, UniProt Q13285, C247S/C412S); experiment: Limited trypsin proteolytic sensitivity assay of SF-1 LBD bound to PIP3; settings: trypsin:SF-1 1:500 (w/w), 25°C, 60 min time course; compared with PIP3(16:0/16:0)
T3 construct: human SF-1 LBD comprising amino acids 218–461 of human SF-1; 6X-HIS (N, cleaved yes); TEV site (N, cleaved yes); made in house; host or cells: E. coli BL21 (DE3)
T3 sequence (Q13285 218-461 C247S/C412S): as above
Protocol: Protease selection for limited digestion was carried out by adding elastase, thermolysin, proteinase K, or trypsin to SF-1 LBD in a protease:SF-1 LBD ratio of 1:500 (w/w), followed by incubation at 30 or 60 min and 10% SDS-PAGE followed by Coomassie stain. For determination of SF-1 proteolysis bound by PIP3(16:0/16:0) or PIP3(18:1/18:1), equal amounts of the purified SF-1 LBD used for crystallization without coactivator peptide were incubated with PIP3(16:0/16:0) or PIP3(18:1/18:1) at a protein:PIP3 molar ratio of 1:10, overnight at room temperature, a procedure determined in previous publications to result in complete PIP3 binding to SF-1 LBD. Limited proteolysis analysis was carried out by adding trypsin (Sigma) to SF1-PIP3 in a trypsin:SF-1 ratio of 1:500 (w/w), followed by incubation at 25°C for a 60 min time course. […] Gels were scanned, and the band intensities quantified using Image J (NIH). […]
(also on this page, place not known: Time (min) Relative percentage protection 0.0002*** Supplemental Figure S1:SF-1 dioleoyl is dipalmitoyl PIP3(16:0/16:0). Coomassie-stained trypsin-digested PIP3 species, trypsin treated 60-minute time course, reactions boiled run gel. B.Relative quantitation expressed percentage signal from in lane, quantified using graph comparing either PIP3(16:0/16:0) indicated PIP3(18:1/18:1) indicated trypsin Sidak’smultiple n=3). […]

human apo-SF-1 LBD [2] = molecular target: T1, human apo-SF-1 LBD; parameters: method as in PMID 25288771; settings: previous work; cited from earlier work
[3] = molecular target: T4, human SF-1 LBD (218-461) 2CS Cys-lite mutant (C247S and C412S) (human, UniProt Q13285 218-461, C247S | C412S); experiment: fluorescence polarisation; SF-1 LBD complexed with dipalmitoyl PIP3(16:0/16:0); 100 nM 5Fam-labeled peptide; 20 mM Hepes (7.5), 150 mM NaCl; 1 h at room temperature; one-site binding model; apparent; settings: both partners purified
T4 construct: The His tag was removed with TEV; also called steroidogenic factor-1; NR5A1; source: complexed with dioleoyl PIP3, dipalmitoyl PIP3 or co-purifying bacterial phospholipid; not shown: His6, N-terminal, cleaved
T4 sequence (Q13285 218-461 C247S/C412S): as above

[4] = molecular target: T4, human SF-1 LBD (218-461) 2CS Cys-lite …; experiment: fluorescence polarisation; SF-1 LBD complexed with dioleoyl PIP3(18:1/18:1), serially diluted from 50 μM; 100 nM 5Fam-labeled peptide; 20 mM Hepes (7.5), 150 mM NaCl; 1 h at room temperature; one-site binding model; settings: both partners purified
[5] = molecular target: T5, human SF-1 ligand binding domain (218–461) 2CS Cys-lite mutant (C247S and C412S) (human, UniProt Q13285 218-461, C247S | C412S); experiment: fluorescence polarisation; SF-1 LBD bound to bacterial phospholipid serially diluted from 50 uM; 100 nM 5Fam-PGC1α peptide; 20 mM Hepes (7.5), 150 mM NaCl; 1 h at room temperature; one-site binding model; apparent Kd; settings: both partners purified
T5 construct: also called SF-1 LBD; SF-1 LBD (2CS); not shown: His6, N-terminal, cleaved
T5 sequence (Q13285 218-461 C247S/C412S): as above

[6] = molecular target: T4, human SF-1 LBD (218-461) 2CS Cys-lite …; experiment: crystal structure; SF-1 LBD complexed with dioleoyl PIP3(18:1/18:1), then with 3-fold molar excess of PGC1α peptide; sitting drop, 20% PEG 3350, 0.2 M magnesium formate, 20°C; settings: both partners purified

Molecule: CCCCCCCCCCCCCCCC(=O)OCC(COP(=O)(O)OC1C(O)C(O)C(OP(=O)(O)O)C(OP(=O)(O)O)C1O)OC(=O)CCCCCCCCCCCCCCC (stereo not drawn) [dipalmitoyl (16:0/16:0) PIP2]
Kd (human apo-SF-1 LBD [1]): 348 ± 42 nM

B1: N-terminal 5Fam-labeled PGC1α co-activator peptide (5Fam-EEPSLLKKLLLAPA-OH) (peptide)
peptide: 5Fam-EEPSLLKKLLLAPA-OH
notes: also called fluorophore-labeled PGC1α peptide; fluorescently labeled peptide; source: synthetic peptide, bought: New England Peptide
Kd [3]: 7700 ± 1400 nM | Kd [4]: > 42000 nM

B2: N-terminal 5Fam-labeled PGC1α co-activator peptide (5Fam-EEPSLLKKLLLAPA-OH) (peptide)
peptide: 5Fam-EEPSLLKKLLLAPA-OH
notes: the validation report numbers the modelled residues P141-A152 (D2:p5); also called PGC1α peptide; fluorophore-labeled PGC1α peptide; source: synthetic peptide; bought: New England Peptide
Kd [5]: 6800 ± 2000 nM

B3: synthetic peptide representing the human PGC1α co-activator (H3N-EEPSLLKKLLLAPA-OH) (peptide)
peptide: H-EEPSLLKKLLLAPA-OH
notes: Unlabelled peptide used for co-crystallisation, free N- and C-termini as printed; also called PGC1α peptide; source: synthetic peptide, bought: New England Peptide
binding result [6]: binds

More lines, main results first:

Kd (human apo-SF-1 LBD [1]): 71 ± 10 nM | fold lower apparent Kd than dipalmitoyl (16:0/16:0) PIP3 (human apo-SF-1 LBD [1]; dioleoyl vs dipalmitoyl PIP3 binding to SF-1 LBD): 3 fold | fold poorer affinity of PGC1α coactivator peptide for SF-1 compared with dipalmitoyl PIP3 (human SF-1 LBD (2CS)): 6 fold | fold poorer affinity of PGC1α coactivator peptide for SF-1 compared with dipalmitoyl PIP3 (human SF-1 LBD (2CS); listed as Dioleoyl PIP3(18:1/18:1)): ≥ 5 fold | trypsin protease sensitivity of SF-1 bound to the lipid (SF-1 LBD): increased trypsin protease sensitivity
Molecule: CCCCCCCC/C=C\CCCCCCCC(=O)OC[C@H](COP(=O)(O)OC1C(O)C(OP(=O)(O)O)C(OP(=O)(O)O)C(OP(=O)(O)O)C1O)OC(=O)CCCCCCC/C=C\CCCCCCCC (stereo partly drawn) [dioleoyl PIP3, 1,2-di-(9Z-octadecenoyl)-sn-glycero-3-[phosphoinositol-3,4,5-trisphosphate]]

Kd (human apo-SF-1 LBD [1]): 130 ± 14 nM
Molecule: CCCCCCCCCCCCCCCC(=O)OC[C@H](COP(=O)(O)OC1C(O)C(OP(=O)(O)O)C(OP(=O)(O)O)C(OP(=O)(O)O)C1O)OC(=O)CCCCCCCCCCCCCCC (stereo partly drawn) [dipalmitoyl PIP3, 1,2-dipalmitoyl-sn-glycero-3-[phosphoinositol-3,4,5-triphophosate]]
affinity for SF-1 (human apo-SF-1 LBD [2]): nanomolar affinity
